Assay results: the NIST ThermoML archive (doi:10.1021/je200721d)

Experiment: xn = mol fraction of the nth substance listed
Settings: Liquid, Vibrating tube method

CCCCCCCC [octane] + CCCCCC
Settings	mass density [kg/m3]
323.08 K, 13000 kPa, x2 = 0.1654	685.79
323.08 K, 14000 kPa, x2 = 0.1654	686.73
323.08 K, 15000 kPa, x2 = 0.1654	687.65
323.08 K, 16000 kPa, x2 = 0.1654	688.56
323.08 K, 17000 kPa, x2 = 0.1654	689.44
323.08 K, 18000 kPa, x2 = 0.1654	690.32
323.08 K, 19000 kPa, x2 = 0.1654	691.15
323.08 K, 20000 kPa, x2 = 0.1654	691.98
323.08 K, 21000 kPa, x2 = 0.1654	692.79
323.08 K, 22000 kPa, x2 = 0.1654	693.57
323.08 K, 23000 kPa, x2 = 0.1654	694.36
323.08 K, 24000 kPa, x2 = 0.1654	695.11
323.08 K, 25000 kPa, x2 = 0.1654	695.85
323.09 K, 1000 kPa, x2 = 0.9308	638.41
323.09 K, 2000 kPa, x2 = 0.9308	639.57
323.09 K, 3000 kPa, x2 = 0.9308	640.76
323.09 K, 4000 kPa, x2 = 0.9308	641.92
323.09 K, 5000 kPa, x2 = 0.9308	643.1
323.09 K, 6000 kPa, x2 = 0.9308	644.29
323.09 K, 7000 kPa, x2 = 0.9308	645.46
323.09 K, 8000 kPa, x2 = 0.9308	646.63
323.09 K, 9000 kPa, x2 = 0.9308	647.79
323.09 K, 10000 kPa, x2 = 0.9308	648.93
323.09 K, 11000 kPa, x2 = 0.9308	650.05
323.09 K, 12000 kPa, x2 = 0.9308	651.17
323.09 K, 13000 kPa, x2 = 0.9308	652.26
323.09 K, 14000 kPa, x2 = 0.9308	653.35
323.09 K, 15000 kPa, x2 = 0.9308	654.41
323.09 K, 16000 kPa, x2 = 0.9308	655.45
323.09 K, 17000 kPa, x2 = 0.9308	656.47
323.09 K, 18000 kPa, x2 = 0.9308	657.47
323.09 K, 19000 kPa, x2 = 0.9308	658.44
323.09 K, 20000 kPa, x2 = 0.9308	659.39
323.09 K, 21000 kPa, x2 = 0.9308	660.32
323.09 K, 22000 kPa, x2 = 0.9308	661.2
323.09 K, 23000 kPa, x2 = 0.9308	662.07
323.09 K, 24000 kPa, x2 = 0.9308	662.91
323.09 K, 25000 kPa, x2 = 0.9308	663.72
323.1 K, 1000 kPa, x2 = 0.7995	646.3
323.1 K, 2000 kPa, x2 = 0.7995	647.41
323.1 K, 3000 kPa, x2 = 0.7995	648.55
323.1 K, 4000 kPa, x2 = 0.7995	649.72
323.1 K, 5000 kPa, x2 = 0.7995	650.83
323.1 K, 6000 kPa, x2 = 0.7995	651.95
323.1 K, 7000 kPa, x2 = 0.7995	653.08
323.1 K, 8000 kPa, x2 = 0.7995	654.18
323.1 K, 9000 kPa, x2 = 0.7995	655.3
323.1 K, 10000 kPa, x2 = 0.7995	656.41
323.1 K, 11000 kPa, x2 = 0.7995	657.51
323.1 K, 12000 kPa, x2 = 0.7995	658.59
323.1 K, 13000 kPa, x2 = 0.7995	659.66
323.1 K, 14000 kPa, x2 = 0.7995	660.72
323.1 K, 15000 kPa, x2 = 0.7995	661.75
323.1 K, 16000 kPa, x2 = 0.7995	662.76
323.1 K, 17000 kPa, x2 = 0.7995	663.74
323.1 K, 18000 kPa, x2 = 0.7995	664.69
323.1 K, 19000 kPa, x2 = 0.7995	665.64
323.1 K, 20000 kPa, x2 = 0.7995	666.56
323.1 K, 21000 kPa, x2 = 0.7995	667.44
323.1 K, 22000 kPa, x2 = 0.7995	668.32
323.1 K, 23000 kPa, x2 = 0.7995	669.16
323.1 K, 24000 kPa, x2 = 0.7995	669.96
323.1 K, 25000 kPa, x2 = 0.7995	670.76
332.95 K, 1000 kPa, x2 = 0.5749	649.41
332.95 K, 2000 kPa, x2 = 0.5749	650.55
332.95 K, 3000 kPa, x2 = 0.5749	651.69
332.95 K, 4000 kPa, x2 = 0.5749	652.87
332.95 K, 5000 kPa, x2 = 0.5749	654.06
332.95 K, 6000 kPa, x2 = 0.5749	655.21
332.95 K, 7000 kPa, x2 = 0.5749	656.35
332.95 K, 8000 kPa, x2 = 0.5749	657.49
332.95 K, 9000 kPa, x2 = 0.5749	658.63
332.95 K, 10000 kPa, x2 = 0.5749	659.75
332.95 K, 11000 kPa, x2 = 0.5749	660.86
332.95 K, 12000 kPa, x2 = 0.5749	661.96
332.95 K, 13000 kPa, x2 = 0.5749	663.04
332.95 K, 14000 kPa, x2 = 0.5749	664.1
332.95 K, 15000 kPa, x2 = 0.5749	665.14
332.95 K, 16000 kPa, x2 = 0.5749	666.16
332.95 K, 17000 kPa, x2 = 0.5749	667.18
332.95 K, 18000 kPa, x2 = 0.5749	668.14
332.95 K, 19000 kPa, x2 = 0.5749	669.09
332.95 K, 20000 kPa, x2 = 0.5749	670.02
332.95 K, 21000 kPa, x2 = 0.5749	670.93
332.95 K, 22000 kPa, x2 = 0.5749	671.82
332.95 K, 23000 kPa, x2 = 0.5749	672.7
332.95 K, 24000 kPa, x2 = 0.5749	673.55
332.95 K, 25000 kPa, x2 = 0.5749	674.35
333.01 K, 1000 kPa, x2 = 0.9308	629.03
333.01 K, 2000 kPa, x2 = 0.9308	630.32
333.01 K, 3000 kPa, x2 = 0.9308	631.62
333.01 K, 4000 kPa, x2 = 0.9308	632.91
333.01 K, 5000 kPa, x2 = 0.9308	634.2
333.01 K, 6000 kPa, x2 = 0.9308	635.48
